Reference: patent publication US7507864B2, “Method for the synthesis of curcumin analogues” (Salisbury University, priority 2006, dated 2009)

Test: Solubility in organic solvents
Assay type: physicochemical
Conditions: for solubility in acetone: solvent acetone; for solubility in ethanol: solvent ethanol; for solubility in ethyl acetate: solvent ethyl acetate; for solubility in isobutyl acetate: solvent isobutyl acetate
Source text: Curcumin is a bright red product once purified and maintains the vanilla fragrance due to the presence of methoxy groups from the starting product vanillin. It is soluble in acetone, ethyl acetate, ethanol, and isobutyl acetate. The solubility of bisdemethoxycurcumin, however, is slightly different. It is very soluble in ethanol and isobutyl acetate but acetone and ethyl acetate solubility is limited. Bisdemethoxycurcumin maintains a pumpkin-orange appearance and is more crystalline in nature than curcumin.

## COc1cc(/C=C/C(=O)CC(=O)/C=C/c2ccc(O)c(OC)c2)ccc1O [Curcumin, 1,7-bis(4-hydroxy-3-methoxyphenyl)-1,6-heptadiene-3,5-dione]
  solubility in acetone: soluble
  solubility in ethanol: soluble
  solubility in ethyl acetate: soluble
  solubility in isobutyl acetate: soluble

## O=C(/C=C(O)/C=C/c1ccc(O)cc1)/C=C/c1ccc(O)cc1 [bisdemethoxycurcumin, 1,7-bis-(4-hydroxyphenyl)-1,6-heptadiene-3,5-dione]
  solubility in acetone: limited
  solubility in ethanol: very soluble
  solubility in ethyl acetate: limited
  solubility in isobutyl acetate: very soluble
